Source: article PMC4891693, “Discovery of prenylated flavonoids with dual activity against influenza virus and Streptococcus pneumoniae” (Scientific Reports, 2016)
Converted amounts (≈) assume the structure as drawn. “And” between values parts separate entries of the source, which are not always exact repeats. Equal entries are not always repeated. Where two headings read alike, the source gives them in different places.

Key:
human erythrocytes [1] = tested on: human erythrocytes
human erythrocytes [2] = assay: Interference with hemagglutination in the viral HA assay
human erythrocytes [3] = tested on: human erythrocytes; remark: listed apart in the source
in vitro [4] = settings: dog
in vitro [5] = settings: human
[6] = tested on: IAV Jena/8178/2009 (8178/09); assay: microbe, parasite or virus in culture; assay type: cell-based, Influenza A virus; settings: Influenza A virus, MDCK, 48 h; read-out: IC50 of CPE IAV 8178/09
influenza virus A/WSN/33 = assay: microbe, parasite or virus in culture; assay type: cell-based; settings: WSN, MDCK, read-out: IC50 of CPE assay (A/WSN/33)
[7] = biological target: influenza virus A/WSN/33 NA (Influenza A virus, UniProt P03470); assay: biochemical
[8] = tested on: NA of S. pneumoniae DSM20566 (precipitated bacterial proteins); assay: Hemagglutination (HA)-based NA inhibition assay, bacterial; assay type: biochemical, Streptococcus pneumoniae; settings: pure compounds; total protein of DSM20566; human erythrocytes; highest tested 100 μM
Text: Inhibition of pneumococcal NAs circumvents hemagglutination.

influenza virus A/WSN/33 NA, sequence (P03470 whole entry, looked up): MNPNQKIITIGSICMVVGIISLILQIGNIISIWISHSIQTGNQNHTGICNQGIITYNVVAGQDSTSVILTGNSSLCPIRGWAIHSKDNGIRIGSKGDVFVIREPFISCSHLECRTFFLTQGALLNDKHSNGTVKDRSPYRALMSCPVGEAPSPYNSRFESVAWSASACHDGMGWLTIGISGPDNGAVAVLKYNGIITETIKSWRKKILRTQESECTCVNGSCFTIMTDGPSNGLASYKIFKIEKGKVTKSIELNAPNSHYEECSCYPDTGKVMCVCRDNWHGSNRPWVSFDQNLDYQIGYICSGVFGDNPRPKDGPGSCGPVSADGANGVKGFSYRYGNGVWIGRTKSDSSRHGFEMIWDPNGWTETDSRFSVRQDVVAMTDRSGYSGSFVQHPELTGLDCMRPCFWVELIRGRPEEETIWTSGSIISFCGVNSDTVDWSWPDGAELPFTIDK

| SMILES | sample concentrations provoking induction of erythrocyte lysis in viral HA assay (human erythrocytes [1]) | sample concentrations provoking prevention of virus-induced hemagglutination in viral HA assay (human erythrocytes [2]) | sample concentrations provoking induction of erythrocyte lysis in bacterial HA assay (human erythrocytes [3]) | CC50 (in vitro [4]) [µM] | CC50 (in vitro [5]) [µM] | IC50 [6] [µM] | IC50 (influenza virus A/WSN/33) [µM] | IC50 [7] [µM] | CC50 at 72 h (in vitro [4]) [µM] | CC50 at 72 h (in vitro [5]) [µM] | MIC in HA assay against S. pneumoniae DSM20566 [8] | sample concentrations provoking induction of erythrocyte lysis in bacterial HA assay (human erythrocytes [3]; human) | sample concentrations provoking induction of erythrocyte lysis in viral HA assay (human erythrocytes [1]; human) |
| --- | --- | --- | --- | --- | --- | --- | --- | --- | --- | --- | --- | --- | --- |
| COc1cc(C2CC(=O)c3c(O)cc(O)cc3O2)ccc1O (racemic) [Compound 9, (±)-homoeriodictyol] | no | no | no |  |  |  |  |  |  |  |  |  |  |
| COc1ccc(C2CC(=O)c3c(O)cc(O)cc3O2)cc1O (racemic) [Compound 10, (±)-hesperetin] | no | no | no | > 100 | > 100 | > 100 | > 100 | > 100 |  |  |  |  |  |
| CC(C)=CCC/C(C)=C/Cc1c(O)cc(O)c2c1OC(c1ccccc1)CC2=O (racemic) [Compound 24, (R,S)-8-geranyl-5,7-dihydroxyflavanone] | no | 100 µM |  |  |  |  |  | > 100 | 60.6 ± 3.81 | > 100 | 3.16 ± 0.00 µM (≈ 1.24 µg/mL) | 100 µM |  |
| CC(C)=CCc1c(O)cc(O)c2c1O[C@@H](c1ccc(O)cc1)[C@H](O)C2=O (relative stereo) [Compound 23, (2R,3R)-rel-4H-2,3-dihydro-3,5,7-trihydroxy-2-(4-hydroxyphenyl)-8-(3-methyl-2-buten-1-yl)-1-benzopyran-4-one] | no | no | no |  |  | 24.7 ± 4.55 |  | 27 ± 3.24 | 69 ± 3.56 | > 100 | 31.6 ± 0.00 µM (≈ 11.3 µg/mL) |  |  |
| CC(C)=CCC12Oc3cc(O)c(C4=CC5(C)CC(C4)c4ccc(O)cc4O5)c(O)c3C(=O)C1(O)Oc1cc(O)ccc12 (stereo not drawn) [Compound 1, sanggenon B] |  | 31.6 µM |  | 28.1 ± 7.26 | 32 ± 9.16 |  |  | 31.2 ± 10.1 |  |  | 31.6 ± 0.00 µM (≈ 18 µg/mL) | 100 µM | 100 or no |
| CC(C)=CC[C@]12Oc3cc(O)c([C@H]4C=C(C)C[C@H](c5ccc(O)cc5O)[C@H]4C(=O)c4ccc(O)cc4O)c(O)c3C(=O)[C@@]1(O)Oc1cc(O)ccc12 [Compound 2, sanggenon C] |  | 3.1 to 100 µM |  | 51.7 ± 12.2 | 32.6 ± 9.07 | 8.3 ± 0.7 |  | 9.18 ± 1.5 |  |  |  | 31.6 to 100 µM | 10 to 100 µM |
| CC1=C[C@H](c2c(O)ccc([C@@H]3CC(=O)c4c(O)cc(O)cc4O3)c2O)[C@@H](C(=O)c2ccc(O)cc2O)[C@H](c2ccc(O)cc2O)C1 [Compound 6, kuwanon L] |  | 31.6 µM |  | > 100 | 94.4 ± 4.73 |  |  | 37.2 ± 10.6 |  |  | 31.6 µM and 31.6 ± 0.00 µM | 100 µM | 100 µM |
| COc1ccc(C2CC(=O)c3c(cc(O)c(CC=C(C)C)c3O)O2)cc1 (stereo not drawn) [Compound 19] | no | no |  |  |  |  |  | > 100 | 50.5 ± 6.32 | > 100 |  | 31.6 to 100 µM |  |
| CC(C)=CCc1cc(C2CC(=O)c3c(O)cc(O)cc3O2)ccc1O (stereo not drawn) [Compound 20, 4',5,7-trihydroxy-3'-prenylflavanone] |  | no |  |  |  |  |  | > 100 | 67.9 ± 2.62 | > 100 |  | 100 or no | 100 or no |
| COc1cc(C2CC(=O)c3c(O)cc(O)cc3O2)cc(CC=C(C)C)c1O (stereo not drawn) [Compound 21, 2,3-dihydro-5,7-dihydroxy-2-[4-hydroxy-3-methoxy-5-(3-methyl-2-butenyl)phenyl]-4H-1-benzopyran-4-one] | no | no | no |  |  |  |  | 45.5 ± 6.06 | 64.9 ± 1.28 | > 100 | 65.8 ± 37.5 µM (≈ 24.4 µg/mL) |  |  |
| COc1cc(C2CC(=O)c3c(cc(O)c(CC=C(C)C)c3O)O2)ccc1O (stereo not drawn) [Compound 22, 2,3-dihydro-5,7-dihydroxy-2-(4-hydroxy-3-methoxyphenyl)-6-(3-methyl-2-buten-1-yl)-4H-1-benzopyran-4-one] | no | no | no |  |  |  |  | > 100 | 63.4 ± 8.31 | > 100 | 31.6 ± 0.00 µM (≈ 11.7 µg/mL) |  |  |
| CC(C)=CCC/C(C)=C/Cc1c(O)cc2c(c1O)C(=O)CC(c1ccc(O)c(O)c1)O2 (stereo not drawn) [Compound 25] |  | 31.6 µM |  |  |  |  |  | 41.4 ± 6.98 | 55.8 ± 4.41 | > 100 | 14.3 ± 9.66 µM (≈ 6.07 µg/mL) | 100 µM | 100 or no |
| CC(C)=CCC/C(C)=C/Cc1c(O)cc2c(c1O)C(=O)[C@H](O)[C@@H](c1ccc(O)cc1)O2 [Compound 26, bonanniol A] |  | no |  |  |  |  |  | 63.9 ± 11.1 | 42.2 ± 22.6 | 63.2 ± 25.9 | 10.0 ± 0.00 µM (≈ 4.24 µg/mL) | 100 µM | 31.6 to 100 µM |
| CC(C)=CCc1c(O)c(CC=C(C)C)c2c(c1O)C(=O)C[C@@H](c1ccc(O)cc1)O2 [Compound 28, 6,8-diprenylnaringenin] | no | no |  |  |  |  |  | > 100 | 15.8 ± 7.58 | 59.1 ± 19.8 | 15.4 ± 10.8 µM (≈ 6.29 µg/mL) | 100 µM |  |
| CC(C)=CCc1c(O)c(CC=C(C)C)c2c(c1O)C(=O)CC(c1cc(O)cc(O)c1)O2 (stereo not drawn) [Compound 29, 2-(3,5-dihydroxyphenyl)-2,3-dihydro-5,7-dihydroxy-6,8-bis(3-methyl-2-buten-1-yl)-4H-1-benzopyran-4-one] |  | 31.6 to 100 µM |  |  |  |  |  | 53.1 ± 17.5 | 34 ± 7.96 | 80.6 ± 2.47 | 31.6 ± 0.00 µM (≈ 13.4 µg/mL) | 100 µM | 100 µM |
| CC(C)=CCc1c(O)c(CC=C(C)C)c2occ(-c3ccc(O)cc3)c(=O)c2c1O [Compound 30, 6,8-diprenylgenistein] | no | 10 to 100 µM |  |  |  |  |  | 62.5 ± 5.4 | 21.1 ± 0.91 | 48.8 ± 16 | 10.0 ± 0.00 µM (≈ 4.06 µg/mL) | 31.6 to 100 µM |  |
| CC(C)=CCc1c(O)c(CC=C(C)C)c2occ(-c3ccc(O)c(O)c3)c(=O)c2c1O [Compound 31, 6,8-diprenylorobol] |  | no |  |  |  |  |  | 37.9 ± 14.6 | 20 ± 1.53 | 47.1 ± 2.83 |  | 100 µM | 31.6 to 100 µM |
| CC(C)=CCc1c(O)c(CC=C(C)C)c2c(c1O)C(=O)C(c1ccc(O)cc1O)CO2 (stereo not drawn) [Compound 32, orientanol E] |  | no |  |  |  |  |  | 26.9 ± 1.85 | 21.4 ± 0.73 | 79.6 ± 2.77 | 10.0 ± 0.00 µM (≈ 4.24 µg/mL) | 31.6 to 100 µM | 31.6 to 100 µM |
| CC(C)=CCc1c(O)cc(CCc2ccccc2)c(CC=C(C)C)c1O [Compound 33, 2,4-bis(3-methyl-2-buten-1-yl)-5-(2-phenylethyl)-1,3-benzenediol] | no | no | no |  |  |  |  | 97.7 ± 0.46 | 33.4 ± 21.4 | 41.7 ± 14.6 | 10.0 ± 0.00 µM (≈ 3.51 µg/mL) |  |  |
| CC(C)=CCc1c(O)c(CC=C(C)C)c2[nH]c3c(O)cccc3c(=O)c2c1O [Compound 34, atalphylline] | no | no | no | 0.63 ± 0.04 | 60.4 ± 16.8 |  |  | > 100 |  |  | 17.2 ± 12.5 µM (≈ 6.53 µg/mL) |  |  |
